Source: paper PMC11789008 (Proceedings of the National Academy of Sciences of the …, 2025)
No end group written: not given here.

Assays:
[1] = powder and solution form
SARS-CoV-2 spike RBD, WT = SARS-CoV-2 spike RBD, WT (Severe acute respiratory syndrome coronavirus 2, UniProt P0DTC2); assay: biochemical
[2] = biological target: SARS-CoV-2 spike ectodomain trimer with the BA.2-type RBD (SARS-CoV-2) (UniProt P0DTC2); assay: cryo-EM structure
[3] = biological target: SARS-CoV-2 spike ectodomain trimer with the BA.5-type RBD (SARS-CoV-2) (UniProt P0DTC2); assay: cryo-EM structure

With “DKLWILQKIYEIMVRLDEEGHGEASLMVSDLIYEFMKRD [CeSPIACE]” the stability [1] was “stability has been confirmed in powder and solution form” and the Kd (SARS-CoV-2 spike RBD, WT) was 0.246 ± 0.002 nM.
Substance “SARS-CoV-2 spike ectodomain trimer with the BA.2-type RBD (from UniProt P0DTC2 13-1208) (domain or fragment)” has a stoichiometry N [2] of 3.
“SARS-CoV-2 spike ectodomain trimer with the BA.5-type RBD (from UniProt P0DTC2 13-1208) (domain or fragment)” gave a stoichiometry N [3] of 3.
